Source: patent US7579016B2, “Methods for repelling arthropods using isolongifolenone analogs” (The United States of America as represented by the …, priority 2007, dated 2009)

How the values were obtained:
Aedes aegypti = experiment: in vitro K&D module mosquito biting-deterrent bioassay; format: in vivo; conditions: for proportion of mosquitoes not biting (biting deterrence): 3-minute exposure, 200 females, FIG. 2; for proportion of mosquitoes deterred, dose-response assay: FIG. 3
Excerpt: (§1) Mosquito Bioassay: Yellowfever mosquito, Aedes aegypti (red eye Liverpool strain) and malarial vector mosquito, Anopheles stephensi used in the study were from colonies maintained at the Walter Reed Army Institute of Research, Department of Entomology, Silver Spring, Md. The mosquitoes were reared using the procedure of Gerberg et al. (Gerberg, E. J., et al., Manual for mosquito rearing and experimental techniques, 1994, AMCA Inc., Lake Charles, La.). Larvae were fed ground tropical fish flakes (Tetramin Tropical Fish Flakes, Tetra Sales, Blacksburg, Va., wwv.tetra-fish.com). Colonies were maintained in a photoperiod of 12:12 h (L:D with lights on at 0600 h) at 27° C. and 80% RH. Adult mosquitoes were supplied with cotton pads moistened with 10% aqueous sucrose solution.
(§2) The comparative mosquito biting-deterrent activity of isolongifolenone and Deet was evaluated using the mosquitoes A. degypti and An. stephensi. Isolongifolenone was synthesized as described earlier. The well known and widely used synthetic repellent chemical Deet (McCabe, E. T., et al., J. Org. Chem., 19: 493-498 (1954)) was purchased from Morflex, Inc., Greensboro, N.C. Deet is often considered to be the best mosquito repellent ever developed (Elston, D. M., J. Am. Acad. Dermatol., 36: 644-645 (1998)) and is used as a gold standard to which new candidate repellents are compared. A comparative bioassay of the two compounds was conducted by using the in vitro K&D module bioassay system (Klun et al., 2005). The K&D in vitro assay system consists of three components: (1) A Plexiglas™ 29.7 cm×7.1 cm K&D module composed of six adjacent cells each designed to hold mosquitoes and each having a rectangular 3×4 cm floor hole that opened and closed by a sliding door. (2) A Plexiglas™ six-well 29.7 cm×7.1 cm water water-bath warmed (38° C.) reservoir with six 3×4 cm wells designed to match the sliding-door openings of the K&D module base and to contain 6 mL warmed human red blood cells. The wells were covered with a collagen membrane (the blood cell-membrane unit simulated a human host for mosquito feeding). (3) A 29.7×7.1 cm×0.4 cm Teflon® separator having six rectangular openings like the K&D module. In the study, test compounds in 95% ethanol solution were applied to 3×4 cm cloth areas marked with ink pen on a 29.7-cm×7.1 cm strip of organdy cloth. We routinely applied ethanol solutions (115 μL) 0.5 cm outside of the 3×4 marked cloth areas to ensure that mosquitoes were never exposed to any area of untreated cloth. […] The Teflon® separator was placed over the treated cloth. The function of the separator was to prevent direct contact of the K&D module with chemically treated cloth. A bioassay replicate consisted of three treatments: isolongifolenone, Deet, and 95% ethanol treated cloth as control. We used two replicates with treatments randomly positioned over the six-cells of a reservoir.
(§3) The mosquito bioassays were conducted With the in vitro K&D module systems positioned in a Purair ductless chemical fume hood (Air Science USA, LLC, Fort Myers, Fla.) from 1300-1600 h over days at 24°-26° C. and 24-51%, RH in ambient laboratory light. Mated nulliparous A. aegypti and A. stephensi (5-15 d old) were tested, and they had no water 24 h before testing. Mosquitoes were loaded into each of six adjacent K&D module cells and promptly after loading they were exposed to 2 replicates of the three treatments on the organdy cloth. Routinely, a six-celled K&D module containing five mosquitoes/cell was positioned on the Teflon® separator over air-dried cloth treatments covering the blood-membrane wells, and trap doors of the K&D modules were opened to expose-the treatments to the sets of mosquitoes. After a 3-minute exposure, the number of mosquitoes biting through cloth treatments in each cell was recorded and mosquitoes were prodded back into the cells. […]

Anopheles stephensi = experiment: as above; format: in vivo; conditions: 25 nmol/cm^2 cloth; 3-minute exposure; 200 females; FIG. 2
Excerpt: as §1, §2, §3

[1] = test system: Amblyomma americanum nymphs; experiment: fingertip tick repellency bioassay (treated cloth strip around finger); format: in vivo; conditions: A. americanum nymphs; 155 nmol/cm^2 cloth; 10 min after release on finger
Excerpt: (§4) Tick Bioassay: Blacklegged tick (Ixodes scapularis) nymphs were reared from larvae obtained from the laboratory colony at Oklahoma State University, Stillwater, Okla., and fed on rats (Beltsville Area Animal Care and Use Committee Protocol #05-0122) at the U.S. Department of Agriculture (USDA), Agricultural Research Service (ARS), Beltsville Agricultural Research Center, Beltsville, Md. Lone star tick (Amblyomma americanum) nymphs were obtained from a colony at the USDA, ARS, Knipling-Bushland U.S. Livestock Insects Research Laboratory, Kerrville, Tex. Both species of ticks were maintained at 24° C.; ˜97% RH and 16:8 h LD until testing.
(§5) The fingertip bioassay used by Schreck et al. (Schreck, C. E., et al., J. Am. Mosq. Control Assoc., 11: 136-140 (1995)) was modified (Carroll, J. F., et al., Exp. Appl. Acarol., 41: 215-224 (2007); Carroll, J. F., et al., Med. Vet. Entomol., 19:101-106 (2005)) by applying treatments to the outer layer of a strip of cloth (organdy) later doubly wrapped around the middle phalanx of an index finger. A 7×7 […] strip of organdy cloth (G Street Fabrics, Rockville, Md.) was cut in the shape of a hockey stick (9 cm long section, 4.5 cm short section, 4-4.5 cm wide) so that when the cloth was wrapped twice around the middle phalanx of the index finger it completely covered the area between the deepest creases of the distal and middle joints of the finger of a volunteer subject. The cloth extended 5-6 mm proximally beyond the deepest crease of the middles joint and overlapped 1-3 mm. With the strip of cloth in place, the boundaries of the area to receive the repellent treatment area (between the deepest creases of the distal and middle joints) were marked on the cloth with a lead pencil. This cloth was used as a template for tracing the boundaries on other cloths.
(§6) Stoichiometrically equivalent stock 95% ethanol solutions of the compounds were prepared: 50 nmol Deet/μL and 50 nmol isolongifolenone or isolongifolenone analog/μL for use in all bioassays. The volumes of the respective solutions used to generate 155 nmole repellent doses/cm^2 cloth were based on the dimensions of the middle phalanx of the left index finger of a volunteer subject. The volume of the treated solutions required to give the desired nmoles/cm^2 cloth dosages was calculated from the average of the circumferences of the two finger joints multiplied by the distance between the deepest crease of each joint.
(§7) A repellent solution (52 μL) or ethanol (control) of the same volume was applied to the designated treatment area on the cloth and allowed to dry. As with Schreck et al. (1995), it was necessary to screen I. scapularis nymphs for active individuals. While the treated cloth dried, I. scapularis nymphs were transferred by forceps from a holding vial to a finger. Ten ticks that crawled ≧5 mm were sequestered in a Petri dish that had been glued inside a larger Petri dish with water added to the space between their sides to form a moat. After the cloth dried (10-12 min), it was wrapped twice around the index finger. To keep the cloth wrapped around the finger, three small dabs of beeswax were smeared on the upper surface of the inner layer of cloth at the edge of the overlap and pressure applied for 10 s. Using forceps, the 10 selected ticks were placed on the tip of the horizontally held finger between the nail and the edge of the cloth. When the tenth tick was placed on the finger, the finger was slowly tipped vertically with the tip downward. The locations of the ticks were recorded at 1, 3, 5, 10 and 15 min after their release on the finger. […] For both species, the finger was held over moated Petri dishes while ≧1 tick was on it. During bioassays temperatures ranged from 23°-26° C. and 10-56% RH. The repellent data were compared by paired samples t-test (SPSS 10.0 for Windows for significance at α=0.05 level, George, D., and P. Mallery, SPSS for Windows step by step: A simple guide and reference, 4th ed., 2002, Allyn & Bacon, Boston, Mass.). […]

Ixodes scapularis nymphs = experiment: as above; format: in vivo; conditions: for I. scapularis nymphs repelled: FIG. 4
Excerpt: as §4, §5, §6, §7

mosquito = conditions: 25 nmol compound/cm^2, applied to human skin or cloth; cited from earlier work

## CC1(C)C2=CC(=O)CC(C)(C)[C@]23CC[C@H]1C3 [Isolongifolenone, (−)-isolongifolenone]
Aedes aegypti; 25 nmol/cm^2 cloth
  proportion of mosquitoes not biting (biting deterrence): more effectively than Deet
Aedes aegypti; 25 nmole compound/cm^2 cloth
  proportion of mosquitoes deterred, dose-response assay: significantly greater than the proportions deterred by Deet
Aedes aegypti; 36 nmole compound/cm^2 cloth
  proportion of mosquitoes deterred, dose-response assay: significantly greater than the proportions deterred by Deet
Anopheles stephensi
  proportion of mosquitoes not biting (biting deterrence): more effectively than Deet
[1]
  Proportion Repelled: 0.725
Ixodes scapularis nymphs; 19.5 nmole/cm^2 cloth
  I. scapularis nymphs repelled: 35%
Ixodes scapularis nymphs; 39 nmole/cm^2 cloth
  I. scapularis nymphs repelled: 65%
Ixodes scapularis nymphs; 78 nmole/cm^2 cloth
  I. scapularis nymphs repelled: 100%
Ixodes scapularis nymphs; I. scapularis nymphs, 155 nmol/cm^2 cloth, 10 min after release on finger
  Proportion Repelled: 1.0

## CCN(CC)C(=O)c1cccc(C)c1 [Deet, N,N-Diethyltoluamide, reference compound]
Aedes aegypti; 25 nmol/cm^2 cloth
  proportion of mosquitoes not biting (biting deterrence): significantly greater
Aedes aegypti; 25 nmol/cm^2 cloth, 100 mosquitoes per compound, FIG. 6
  proportion of mosquitoes not biting (analog comparison): significantly greater
Anopheles stephensi
  proportion of mosquitoes not biting (biting deterrence): significantly greater
Ixodes scapularis nymphs; 19.5 nmole/cm^2 cloth
  I. scapularis nymphs repelled: 15%
Ixodes scapularis nymphs; 39 nmole/cm^2 cloth
  I. scapularis nymphs repelled: 55%
Ixodes scapularis nymphs; 78 nmole/cm^2 cloth
  I. scapularis nymphs repelled: 100%
mosquito
  suppression of mosquito biting compared to controls: ca. 80%
